“Also recorded” adds a separate entry of the source.
Key:
[1] = Pharmacokinetics (plasma and CSF) in infected monkeys after last DB844 dose; details: for Tmax: po
[2] = Metabolism of DB844 in vervet monkey liver microsomes; type: in vitro ADME
Protocol: The metabolism of DB844 was investigated using liver microsomes, prepared from a male vervet monkey by XenoTech, LLC (Lenexa, KS), in the presence of NADPH as described previously with modifications. Briefly, incubation mixtures (1 ml at pH7.4, in triplicate) contained 10 µM DB844 and 0.2 mg/ml monkey liver microsomes. After a 5-min equilibration period at 37°C, reactions were initiated with the addition of NADPH. Aliquots (50 µl) of the reaction mixtures were removed at 0, 5, 10, 15, 30, 60, 90, and 120 min and mixed with 25 µl of ice-cold acetonitrile. The mixtures were centrifuged (10,000×g for 5 min at 4°C) and the supernatants were analyzed by HPLC/UV using the same method as previously described for DB289 [22]. […] DB844 and metabolites were quantified using a single-concentration calibration curve generated using synthetic standards.

[3] = test system: Trypanosoma brucei rhodesiense KETRI 2537; set-up: method as in earlier work; details: treatment initiated at 28 DPI; unpublished TRC-KARI data; cited from earlier work
[4] = set-up: method as in PMID 20721830; details: extended phase I clinical trial, 14 day dose regimen of 100 mg bid; cited from earlier work
[5] = set-up: method as in PMID 17360833; details: dosed orally to cynomolgus monkey at 5 mg/kg; cited from earlier work
2nd stage HAT = test system: 2nd stage HAT; set-up: method as in PMID 19620327, PMID 19064893; details: cited from earlier work

## N=C(N)c1ccc(-c2ccc(-c3ccc(C(=N)N)cn3)o2)cc1 [DB820]
[1]; 2/7 monkeys (571 and 624), between 24 and 96 h post dose
  sporadic CSF concentration: < 4 nM
[1]; after last dose of DB844 6 mg/kg×14 days, samples at 1, 24, 96, 168 h and weekly
  detection in the CSF: not detected
[1]; monkey, in vivo, 6 mg/kg
  concentration at 28 days: 0.035 µM
[1]; monkey, in vivo, 6 mg/kg, Tmax, plasma, after the 14th oral dose of DB844 at 6 mg/kg, n = 7, median, analyte = label
  Tmax: 4.08 h
[1]; monkey, in vivo, 6 mg/kg, time of peak plasma concentration, after the last (14th) dose of DB844 at 6 mg/kg, analyte = label
  Tmax: 4 h
[1]; plasma, after the 14th oral dose of DB844 at 6 mg/kg, n = 7, geometric mean, analyte = label
  AUClast: 1400 nmol·days/L

## CO/N=C(/N)c1ccc(-c2ccc(-c3ccc(/C(N)=N/O)cc3)o2)nc1 [M1B]
[2]
  relative metabolite concentration in the drug/liver microsome mixture: highest concentrations during the initial 20 minutes

## CONC(=N)c1ccc(-c2ccc(-c3ccc(C(=N)NOC)cc3)o2)cc1 [pafuramidine, 2,5-bis(4-amidinophenyl)furan-bis-O-methylamidoxime]
[3]
  cure in the vervet monkey model of CNS stage HAT: non-curative; also recorded: did not cure any monkey
[4]
  subjects who developed delayed renal insufficiency: 6%
[5]
  Cmax: 0.03 to 0.035 µM
2nd stage HAT
  cure against 2nd stage HAT in animal models: did not achieve cure

## N=C(N)c1ccc(OCCCCCOc2ccc(C(=N)N)cc2)cc1 [pentamidine]
[3]
  cure in the vervet monkey model of CNS stage HAT: non-curative; also recorded: did not cure any monkey
2nd stage HAT
  cure against 2nd stage HAT in animal models: did not achieve cure

Source: PMC3404106, “Pharmacology of DB844, an Orally Active aza Analogue of Pafuramidine, in a Monkey Model of Second Stage Human African Trypanosomiasis” (PLoS Neglected Tropical Diseases, 2012)
